Assay results taken from US20020183518A1, “Modulators of proteins with phosphotyrosine recognition units” (ONTOGEN CORPORATION, priority 1995, published 2002).

Legend:
CD45 = target: T1, CD45 (Homo sapiens, UniProt P08575); experiment: In vitro PTPase inhibition assay (pNPP, colorimetric), CD45; format: biochemical; conditions: Table 9; read-out: IC50 values against CD45
T1 construct: The PCR reaction product (2127 bp) was digested with Sma I (New England Biolabs, Beverly Mass.) to yield a 2110 bp product; made in house; host or cells: E. coli DH5α, plasmid pET24C-CD45
T1 sequence (P08575 599-1306 limits assumed): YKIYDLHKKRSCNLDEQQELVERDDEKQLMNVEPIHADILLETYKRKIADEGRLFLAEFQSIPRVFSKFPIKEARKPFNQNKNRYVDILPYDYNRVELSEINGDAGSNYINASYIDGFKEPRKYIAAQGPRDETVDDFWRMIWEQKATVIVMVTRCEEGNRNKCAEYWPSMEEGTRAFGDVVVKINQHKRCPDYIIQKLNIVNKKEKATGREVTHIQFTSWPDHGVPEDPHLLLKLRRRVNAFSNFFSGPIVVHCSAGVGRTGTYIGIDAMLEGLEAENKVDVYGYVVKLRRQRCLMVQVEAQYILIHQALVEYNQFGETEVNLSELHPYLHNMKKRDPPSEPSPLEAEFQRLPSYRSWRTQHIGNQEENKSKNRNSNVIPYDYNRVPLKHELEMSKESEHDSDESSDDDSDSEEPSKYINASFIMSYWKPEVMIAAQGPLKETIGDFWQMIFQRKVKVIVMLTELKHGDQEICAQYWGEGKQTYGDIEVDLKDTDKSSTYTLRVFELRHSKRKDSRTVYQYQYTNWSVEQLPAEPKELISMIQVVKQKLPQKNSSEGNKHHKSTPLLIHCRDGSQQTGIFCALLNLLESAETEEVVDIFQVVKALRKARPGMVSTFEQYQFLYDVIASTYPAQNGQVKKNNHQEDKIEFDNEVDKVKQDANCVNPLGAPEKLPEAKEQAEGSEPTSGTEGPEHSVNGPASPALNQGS
Experimental: CD45 enzymatic activity of samples was assayed in microtiter plates as follows. […] Louis Mo.), and 80 ul of activity assay buffer (100 mM sodium acetate, pH 6.0, 1 mM EDTA, 0.1% Triton X-100, 15 mM bME). Reactions were mixed gently and incubated at 37° C. for 60 minutes. […] To determine the enzymatic activity, absorbance readings of the reactions were measured at 405 nm using a Molecular Devices Thermomax Plate Reader (Menlo Park Calif.). […] Purified phosphatase was added to the reaction mixtures to begin the reactions; the reactions were incubated at 37° C. for 60 min. […] (for PTP-1C and PTPα assays), stopped, and colorimetrically analyzed as described above. […] First, absorbance readings from the negative control reactions were treated as a baseline and subtracted from the absorbance readings of the experimental reactions. Then, for each reaction, a percent inhibition was calculated using the following formula: […] For each inhibitor compound tested, an IC50 concentration was calculated from a best-fit computer analysis of the calculated percent inhibition for the various dilutions of the compound. CD45 enzymatic activity of samples was assayed in microtiter plates as follows. […] Louis Mo.), and 80 ul of activity assay buffer (100 mM sodium acetate, pH 6.0, 1 mM EDTA, 0. 1% Triton X-100, 15 mM bME). Reactions were mixed gently and incubated at 37° C. for 60 minutes. […] To determine the enzymatic activity, absorbance readings of the reactions were measured at 405 nm using a Molecular Devices Thermomax Plate Reader (Menlo Park Calif.). […] Purified phosphatase was added to the reaction mixtures to begin the reactions; the reactions were incubated at 37° C. for 60 min. […] (for PTP-1C and PTPα assays), stopped, and calorimetrically analyzed as described above. […] First, absorbance readings from the negative control reactions were treated as a baseline and subtracted from the absorbance readings of the experimental reactions. Then, for each reaction, a percent inhibition was calculated using the following formula: […] For each inhibitor compound tested, an IC50 concentration was calculated from a best-fit computer analysis of the calculated percent inhibition for the various dilutions of the compound.

PTP-1B = target: T2, PTP-1B (Homo sapiens, UniProt P18031); experiment: In vitro PTPase inhibition assay (pNPP, colorimetric), PTP-1B; format: biochemical; conditions: Table 9; read-out: IC50 values against PTP1B
T2 construct: known to encode a 321 amino acid fragment containing the PTP-1B catalytic domain and having PTPase activity; made in house; host or cells: E. coli DH5α, plasmid pGEX-3X-PTP-1B
T2 sequence (P18031 3-277 limits assumed): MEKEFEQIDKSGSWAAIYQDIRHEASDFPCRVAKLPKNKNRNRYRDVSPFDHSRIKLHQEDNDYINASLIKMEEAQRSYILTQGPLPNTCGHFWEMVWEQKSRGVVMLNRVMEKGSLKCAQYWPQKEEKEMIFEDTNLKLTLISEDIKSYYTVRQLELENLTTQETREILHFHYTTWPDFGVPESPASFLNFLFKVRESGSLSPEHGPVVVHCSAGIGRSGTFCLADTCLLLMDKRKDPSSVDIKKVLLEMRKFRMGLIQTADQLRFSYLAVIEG
Experimental: PTP-1B enzymatic activity of samples was assayed in microtiter plates as follows. The protein concentration of the PTP-1B enzyme preparation was determined using the Bio-Rad Protein Assay kit (Bio-Rad, Hercules Calif.). […] Reactions were mixed gently and incubated at 37° C. for 60 minutes. Enzymatic cleavage of phosphate from pNPP (a tyrosine phosphate analog) is marked by a colorimetric change in this substrate. See, e.g., Imbert et al., Biochem J., 297:163-173 (1994); Ghosh and Miller, Biochem. Biophys. Res. […] Zanke et al., Eur. J. […] To determine the enzymatic activity, absorbance readings of the reactions were measured at 405 nm using a Molecular Devices Thermomax Plate Reader (Menlo Park Calif.). […] Purified phosphatase was added to the reaction mixtures to begin the reactions; the reactions were incubated at 37° C. for 60 min. […] (for PTP-1C and PTPα assays), stopped, and colorimetrically analyzed as described above. […] First, absorbance readings from the negative control reactions were treated as a baseline and subtracted from the absorbance readings of the experimental reactions. Then, for each reaction, a percent inhibition was calculated using the following formula: […] For each inhibitor compound tested, an IC50 concentration was calculated from a best-fit computer analysis of the calculated percent inhibition for the various dilutions of the compound. PTP-1B enzymatic activity of samples was assayed in microtiter plates as follows. The protein concentration of the PTP-1B enzyme preparation was determined using the Bio-Rad Protein Assay kit (Bio-Rad, Hercules Calif.). […] Reactions were mixed gently and incubated at 37° C. for 60 minutes. Enzymatic cleavage of phosphate from pNPP (a tyrosine phosphate analog) is marked by a colorimetric change in this substrate. See, e.g., Imbert et al., Biochem J., 297:163-173 (1994); Ghosh and Miller, Biochem. Biophys. Res. […] Zanke et al., Eur. […] To determine the enzymatic activity, absorbance readings of the reactions were measured at 405 nm using a Molecular Devices Thermomax Plate Reader (Menlo Park Calif.). […] Purified phosphatase was added to the reaction mixtures to begin the reactions; the reactions were incubated at 37° C. for 60 min. […] (for PTP-1C and PTPα assays), stopped, and calorimetrically analyzed as described above. […] First, absorbance readings from the negative control reactions were treated as a baseline and subtracted from the absorbance readings of the experimental reactions. Then, for each reaction, a percent inhibition was calculated using the following formula: […] For each inhibitor compound tested, an IC50 concentration was calculated from a best-fit computer analysis of the calculated percent inhibition for the various dilutions of the compound.

SMILES	IC50 (CD45)	IC50 (PTP-1B)
O=C(O)/C=C/c1ccc(-c2nc(-c3cc(F)ccc3F)[nH]c2-c2ccc(/C=C/C(=O)O)cc2)cc1 [Compound 76]	930 nM	680 nM
CCCCCc1nc(-c2ccc(/C=C/C(=O)O)cc2)c(-c2ccc(/C=C/C(=O)O)cc2)[nH]1 [Compound 77]	7500 nM	780 nM
O=C(O)/C=C/c1ccc(-c2nc(-c3ccccc3F)[nH]c2-c2ccc(/C=C/C(=O)O)cc2)cc1 [Compound 78]	1150 nM	790 nM
O=C(O)/C=C/c1ccc(-c2nc(/C=C/c3ccccc3)[nH]c2-c2ccc(/C=C/C(=O)O)cc2)cc1 [Compound 79]	8200 nM	4800 nM
O=C(O)/C=C/c1ccc(-c2nc(-c3ccc4ccc5cccc6ccc3c4c56)[nH]c2-c2ccc(/C=C/C(=O)O)cc2)cc1 [Compound 80]	20000 nM	10000 nM
O=C(O)/C=C/c1ccc(-c2nc(-c3cc4ccccc4c4ccccc34)[nH]c2-c2ccc(/C=C/C(=O)O)cc2)cc1 [Compound 81]	19000 nM	26000 nM
O=C(O)/C=C/c1ccc(-c2nc(-c3cc(Cl)cc(Cl)c3Cl)[nH]c2-c2ccc(/C=C/C(=O)O)cc2)cc1 [Compound 82]	12800 nM	11900 nM
COc1ccc(-c2nc(-c3ccc(/C=C/C(=O)O)cc3)c(-c3ccc(/C=C/C(=O)O)cc3)[nH]2)cc1F [Compound 83]	1500 nM	1300 nM
O=C(O)/C=C/c1ccc(-c2nc(-c3c(F)c(F)c(F)c(F)c3F)[nH]c2-c2ccc(/C=C/C(=O)O)cc2)cc1 [Compound 84]	2700 nM	1200 nM
O=C(O)/C=C/c1ccc(-c2nc(-c3ccc4c(c3)OCO4)[nH]c2-c2ccc(/C=C/C(=O)O)cc2)cc1 [Compound 85]	1800 nM	1500 nM
COc1ccc(-c2nc(-c3ccc(/C=C/C(=O)O)cc3)c(-c3ccc(/C=C/C(=O)O)cc3)[nH]2)c(C)c1C [Compound 86]	7100 nM	1800 nM
O=C(O)/C=C/c1ccc(-c2nc(-c3ccc(OCc4ccccc4)cc3)[nH]c2-c2ccc(/C=C/C(=O)O)cc2)cc1 [Compound 87]	1100 nM	1000 nM
O=C(O)/C=C/c1ccc(-c2nc(-c3ccc4c(c3)CCC4)[nH]c2-c2ccc(/C=C/C(=O)O)cc2)cc1 [Compound 89]	> 100000 nM	13700 nM
CC(=O)Nc1ccc(-c2nc(-c3ccc(/C=C/C(=O)O)cc3)c(-c3ccc(/C=C/C(=O)O)cc3)[nH]2)cc1 [Compound 90]	1120 nM	860 nM
COc1ccc(-c2nc(-c3cc(/C=C/C(=O)O)ccc3O)c(-c3cc(/C=C/C(=O)O)ccc3O)[nH]2)cc1 [Compound 91]	> 100000 nM	25900 nM
CCCCn1cnc(-c2ccc(/C=C/C(=O)O)cc2)c1-c1ccc(/C=C/C(=O)O)cc1 [Compound 94]	7000 nM	700 nM
O=C(O)/C=C/c1ccc(-c2ncn(-c3ccccc3)c2-c2ccc(/C=C/C(=O)O)cc2)cc1 [Compound 99]	7400 nM	1500 nM
O=C(O)/C=C/c1ccc(-c2[nH]cnc2C(=O)OCc2ccccc2)cc1 [Compound 134]	20000 nM	3400 nM
O=C(O)/C=C/c1ccc(-c2nc(C(=O)OCc3ccccc3)c(-c3ccc(/C=C/C(=O)O)cc3)[nH]2)cc1 [Compound 136]	8000 nM	700 nM
O=C(O)/C=C/c1ccc(-c2nc3ccc([N+](=O)[O-])cc3nc2-c2ccc(/C=C/C(=O)O)cc2)cc1 [Compound 152]	1200 nM	850 nM
O=C(O)/C=C/c1ccc(-c2nc3cc(Cl)c(Cl)cc3nc2-c2ccc(/C=C/C(=O)O)cc2)cc1 [Compound 153]	1910 nM	2650 nM
Cc1ccc2nc(-c3ccc(/C=C/C(=O)O)cc3)c(-c3ccc(/C=C/C(=O)O)cc3)nc2c1 [Compound 154]	2450 nM	3830 nM
O=C(O)/C=C/c1ccc(-c2nc3ccc(C(=O)O)cc3nc2-c2ccc(/C=C/C(=O)O)cc2)cc1 [Compound 155]	1300 nM	1000 nM
COC(=O)c1ccc2nc(-c3ccc(/C=C/C(=O)O)cc3)c(-c3ccc(/C=C/C(=O)O)cc3)nc2c1 [Compound 156]	1300 nM	1700 nM
O=C(O)/C=C/c1ccc(-c2nc3ccccc3nc2-c2ccc(/C=C/C(=O)O)cc2)cc1 [Compound 157]	1500 nM	5500 nM
O=C(O)/C=C/c1ccc(-c2nc3cccnc3nc2-c2ccc(/C=C/C(=O)O)cc2)cc1 [Compound 160]	1520 nM	980 nM
